According to US20220133761A1, “NEUTROPHIL APOPTOSIS INDUCED BY NANOPARTICLES FOR TREATING INFLAMMATORY DISEASES” (WASHINGTON STATE UNIVERSITY, priority 2020, published 2022):

Tests used:
[1] = tested on: differentiated HL-60 cells (neutrophil-like cells); assay: In vitro cytotoxicity, CCK-8 assay; format: cell-based, human; settings: 24 h, different concentrations of DOX
Description: Cytotoxic effects of BSA NPs on HL-60 cells were measured by CCK-8 assay. HL-60 cells were plated in 96-well plates (Costar, Corning, N.Y.) at 5,000-10,000 cells/well. After incubation for 24 h, the culture medium was removed and a complete medium with various concentrations of free DOX, BSA and DOX-conjugated BSA NPs was used to incubate cells for 24 h, respectively. 10 μL of the solution cell proliferation reagent (Promega, Madison, Wis.) per well was added. Then, the cell viability was measured by a Synergy Neo fluorescence plate reader (BioTek, Winooski, Vt.) at 490 nm.

activated neutrophils = assay: Nanoparticle uptake by blood leukocytes in LPS-induced inflammation mouse model (CLSM, flow cytometry); format: in vivo
Description: To investigate cell uptake specificity of BSA NPs in circulation, blood cells were isolated and studied using confocal laser scanning microscopy (CLSM) and flow cytometry. Briefly, 4 h after LPS challenge (i.p., 20 mg kg^−1), DOX-hyd-BSA NPs were intravenously injected into mice. Healthy mice were used as control. 3 h later, the whole blood was harvested in a heparinized tube from the heart. Neutrophils in blood were isolated by Pluriselect anti-mouse LY-6G S-pluribeads according to the manufacturer's protocol (Pluriselect, Spring Valley, Calif.). The cells were fixed with 2 mL of 4% paraformaldehyde for 30 min and were stained with Alexa Fluor 488-labeled anti-mouse LY-6G antibody. A slide smear of cell solution was prepared by 7620 Cytopro Cytocentrifuge (ELITech, Princeton, N.J.). A drop of Prolong Gold Antifade reagent with DAPI (Invitrogen, Eugene, Oreg.) was added on the cells, and a coverslip was applied on the slide. 4 h later, the cells were observed using a Nikon A1R^+ confocal laser scanning microscope.
Flow cytometry to quantify neutrophil uptake of nanoparticles was also utilized. Blood leukocytes were isolated to determine the specificity of uptake of NPs in blood. In brief, 3 mL Histopaque 10771 was carefully layered on top of 3 mL Histopaque 11191 in a 15 mL centrifuge tube. […]

LPS-challenged mice [2] = assay: Therapeutic efficacy in sepsis mouse model (neutrophils, cytokines, MPO in blood, BALF, organs); format: in vivo
Description: Adult CD-1 mice were i.p. administrated with LPS (50 mg/kg). 4 hours later, the mice were grouped randomly (10 mice per group) and i.v. injected with PBS, free DOX and DOX-hyd-BSA NPs (equal to 0.2 mg kg^−1 of free DOX), respectively. The healthy mice were used as […]. At predetermined time points (16 h and 72 h after LPS challenge), mouse BALF, blood and major organs were collected. Cell number and inflammatory factors (TNF-α, IL-6 and IL-1β) in BALF were determined by hemocytometer and ELISA, respectively as aforementioned. Blood was collected as described above. The plasma was harvested for ELISA assay after the blood was centrifuged at 1500 g for 20 min. Cell number was counted as above. The organs were homogenized with PBS (100 mg/mL) to obtain the pipettable homogenate for myeloperoxidase (MPO) activity and ELISA assay.

[3] = In vitro drug release profile (dialysis, 37 C); format: physicochemical
Description: Release profiles of DOX from NPs were studied using dialysis method at 37° C.(33) Briefly, 3 mg of NPs was dispersed in 3 mL (Ve) PBS at different pH, and then was placed in a dialysis bag (MWCO 3500 Da). The dialysis bag was immersed in 47 mL PBS (pH 7.4, 6.5 or 5.0) in a beaker. The beaker was then placed in a 37° C. water bath and stirred at 110 rpm. The samples were drawn at desired time intervals and the drug concentration was measured using UV-Vis absorption. The experiments were carried out in triplicate at each pH value. The accumulative drug release percent (Er) was calculated based on equation (1).
where, mdrug represents the amount of DOX in NPs, V0 was the whole volume of release media (V0=50 mL), Ci represents the concentration of DOX in the ith sample.

[4] = tested on: heart, liver, spleen, lung and kidney; assay: Toxicity by histological analysis (H&E staining of major organs); settings: 0.2 mg/kg DOX
Description: After different treatments (healthy, PBS, 4 mg/kg of free DOX, 0.2 mg/kg of free DOX, DOX-hyd-BSA NPs and DOX-ab-BSA NPs, equal to 0.2 mg/kg of DOX for NPs), mice were sacrificed by carbon dioxide asphyxiation. […] The samples were imaged by a microscope (ZEISS, Observer. Z1, USA).

LPS-challenged mice [5] = assay: Survival study in sepsis mouse model (i.p. LPS 50 mg/kg); format: in vivo; settings: 72 h, 0.2 mg/kg DOX i.v. 4 h after i.p. LPS 50 mg/kg
Description: Adult CD-1 mice were i.p. injected with LPS (50 mg/kg) in the mouse sepsis model. 4 hours later, the LPS-challenged mice were grouped randomly (10 mice per group) and treated (i.v.) with PBS, free DOX (0.2 mg/kg), and prodrug DOX-hyd-BSA NPs (equal to 0.2 mg/kg of free DOX). The animals were monitored every 6 h in the first 12 h followed by monitoring mice every 12 h in 72 h.

[6] = first 16 h after LPS challenge, vs PBS

## DOX-hyd-BSA NPs
[1]
  cytotoxicity (cell viability): cytotoxicity was similar for both free DOX and DOX-hyd-BSA NPs
Activated neutrophils; 4 h after i.p. LPS 20 mg/kg, blood 3 h after i.v. NPs
  neutrophil uptake of NPs: neutrophil uptake was observed
Activated neutrophils; LPS-challenged mice, flow cytometry
  uptake by T cells, monocytes and natural killer (NK) cells in blood: did not take up BSA NPs
LPS-challenged mice [2]; 16 h and 72 h post-LPS challenge, vs PBS
  inflammation in other organs (MPO, TNF-α, IL-6, IL-1β): significantly decreased inflammation in other organs
LPS-challenged mice [2]; 72 h after LPS challenge
  neutrophil number and cytokine contents: resumed to their levels as in healthy mice
LPS-challenged mice [2]; [6]
  cytokines in blood and lung BALF: decreased accordingly
  neutrophils in blood and lung BALF: dramatically decreased
LPS-challenged mice [2]; neutrophil counts compared with healthy mice
  neutrophil production in the bone marrow: did not impair neutrophil production in the bone marrow
[3]; pH 5.0, first 10 h
  cumulative DOX release: 80%
[3]; pH 5, in 30 h
  cumulative DOX release: completely released DOX
[3]; pH 6.5, first 10 h
  cumulative DOX release: 60%
[4]
  tissue or cellular damage in H&E sections of heart, liver, spleen, lung, kidney: did not show any noticeable signs of tissue or cellular damage
LPS-challenged mice [5]
  mouse survival: 70%
